How the values were obtained:
Test in all cases: biochemical
[1] = molecular target: T1, panel of 374 wild-type kinases (Homo sapiens, UniProt O75385); details: read-out: % Enzyme Activity (relative to DMSO controls), kinase ULK1
T1 construct: purchased Reaction Biology Corporation
T1 sequence (O75385 1-1050): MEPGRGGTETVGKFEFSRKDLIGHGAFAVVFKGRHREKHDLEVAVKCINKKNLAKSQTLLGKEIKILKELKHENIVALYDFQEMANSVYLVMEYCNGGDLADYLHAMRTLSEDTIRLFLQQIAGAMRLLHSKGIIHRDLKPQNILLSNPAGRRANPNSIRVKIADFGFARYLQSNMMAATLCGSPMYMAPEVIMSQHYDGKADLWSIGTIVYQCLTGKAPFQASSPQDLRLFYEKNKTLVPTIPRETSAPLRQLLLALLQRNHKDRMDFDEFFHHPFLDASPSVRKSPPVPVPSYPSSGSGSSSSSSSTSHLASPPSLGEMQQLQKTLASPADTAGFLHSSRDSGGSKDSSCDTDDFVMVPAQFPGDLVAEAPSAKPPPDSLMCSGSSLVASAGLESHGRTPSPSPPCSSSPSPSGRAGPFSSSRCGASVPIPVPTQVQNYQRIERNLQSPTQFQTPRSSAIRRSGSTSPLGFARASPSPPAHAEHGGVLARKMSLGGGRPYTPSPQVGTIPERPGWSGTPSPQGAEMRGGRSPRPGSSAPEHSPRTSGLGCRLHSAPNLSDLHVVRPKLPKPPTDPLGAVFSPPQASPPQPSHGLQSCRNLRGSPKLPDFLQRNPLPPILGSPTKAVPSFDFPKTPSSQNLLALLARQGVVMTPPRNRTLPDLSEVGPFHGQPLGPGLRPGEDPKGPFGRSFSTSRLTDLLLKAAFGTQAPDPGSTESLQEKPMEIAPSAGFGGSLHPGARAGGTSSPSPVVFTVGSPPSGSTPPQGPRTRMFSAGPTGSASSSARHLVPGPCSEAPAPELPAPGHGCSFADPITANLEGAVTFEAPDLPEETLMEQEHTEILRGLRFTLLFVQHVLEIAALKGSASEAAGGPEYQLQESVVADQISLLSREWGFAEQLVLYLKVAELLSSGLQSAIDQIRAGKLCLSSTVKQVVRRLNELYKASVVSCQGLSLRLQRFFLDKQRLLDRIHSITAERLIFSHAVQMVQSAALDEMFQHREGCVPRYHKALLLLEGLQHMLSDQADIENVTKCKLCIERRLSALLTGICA

[2] = molecular target: T2, panel of 374 wild-type kinases (Homo sapiens, UniProt P04629); details: read-out: % Enzyme Activity (relative to DMSO controls), kinase TRKA
T2 construct: purchased Reaction Biology Corporation
T2 sequence (P04629 33-796): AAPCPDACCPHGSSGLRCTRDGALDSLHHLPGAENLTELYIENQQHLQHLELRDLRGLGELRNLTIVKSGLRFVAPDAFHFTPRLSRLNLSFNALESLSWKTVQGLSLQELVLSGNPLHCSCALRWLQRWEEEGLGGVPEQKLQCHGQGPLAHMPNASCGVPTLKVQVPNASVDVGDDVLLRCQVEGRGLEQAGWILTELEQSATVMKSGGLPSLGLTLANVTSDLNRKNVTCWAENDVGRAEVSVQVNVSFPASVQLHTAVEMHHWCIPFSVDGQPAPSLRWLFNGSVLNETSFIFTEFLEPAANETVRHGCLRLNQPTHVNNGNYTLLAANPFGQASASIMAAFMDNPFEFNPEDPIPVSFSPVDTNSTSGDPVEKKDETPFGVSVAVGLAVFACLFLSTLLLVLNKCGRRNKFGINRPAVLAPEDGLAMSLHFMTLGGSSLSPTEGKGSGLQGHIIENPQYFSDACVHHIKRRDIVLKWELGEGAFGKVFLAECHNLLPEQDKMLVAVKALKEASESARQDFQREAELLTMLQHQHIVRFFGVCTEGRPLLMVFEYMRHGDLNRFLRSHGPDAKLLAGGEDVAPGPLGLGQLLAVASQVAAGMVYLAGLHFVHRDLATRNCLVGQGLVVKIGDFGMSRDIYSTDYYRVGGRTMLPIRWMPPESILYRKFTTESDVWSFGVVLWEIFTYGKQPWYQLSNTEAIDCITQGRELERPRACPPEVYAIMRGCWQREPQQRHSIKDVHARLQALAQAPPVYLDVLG

[3] = molecular target: T3, panel of 374 wild-type kinases (Homo sapiens, UniProt P37023); details: read-out: % Enzyme Activity (relative to DMSO controls), ALK1/ACVRL1
T3 construct: purchased Reaction Biology Corporation
T3 sequence (P37023 22-503): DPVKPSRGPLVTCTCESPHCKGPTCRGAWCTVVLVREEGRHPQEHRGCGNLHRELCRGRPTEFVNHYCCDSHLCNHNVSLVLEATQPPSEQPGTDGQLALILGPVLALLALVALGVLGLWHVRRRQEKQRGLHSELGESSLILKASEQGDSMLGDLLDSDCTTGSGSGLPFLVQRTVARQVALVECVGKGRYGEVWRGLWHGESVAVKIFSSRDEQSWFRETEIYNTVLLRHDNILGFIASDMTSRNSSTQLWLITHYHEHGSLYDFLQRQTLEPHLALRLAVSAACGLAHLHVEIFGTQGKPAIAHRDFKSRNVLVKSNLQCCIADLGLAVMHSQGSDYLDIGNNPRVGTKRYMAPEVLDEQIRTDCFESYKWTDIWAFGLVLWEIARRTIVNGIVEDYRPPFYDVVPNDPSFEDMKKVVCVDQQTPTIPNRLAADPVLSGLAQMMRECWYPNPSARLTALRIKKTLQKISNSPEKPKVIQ

[4] = molecular target: T4, panel of 374 wild-type kinases (Homo sapiens, UniProt P43250); details: read-out: % Enzyme Activity (relative to DMSO controls), GRK6
T4 construct: purchased Reaction Biology Corporation
T4 sequence (P43250 whole entry): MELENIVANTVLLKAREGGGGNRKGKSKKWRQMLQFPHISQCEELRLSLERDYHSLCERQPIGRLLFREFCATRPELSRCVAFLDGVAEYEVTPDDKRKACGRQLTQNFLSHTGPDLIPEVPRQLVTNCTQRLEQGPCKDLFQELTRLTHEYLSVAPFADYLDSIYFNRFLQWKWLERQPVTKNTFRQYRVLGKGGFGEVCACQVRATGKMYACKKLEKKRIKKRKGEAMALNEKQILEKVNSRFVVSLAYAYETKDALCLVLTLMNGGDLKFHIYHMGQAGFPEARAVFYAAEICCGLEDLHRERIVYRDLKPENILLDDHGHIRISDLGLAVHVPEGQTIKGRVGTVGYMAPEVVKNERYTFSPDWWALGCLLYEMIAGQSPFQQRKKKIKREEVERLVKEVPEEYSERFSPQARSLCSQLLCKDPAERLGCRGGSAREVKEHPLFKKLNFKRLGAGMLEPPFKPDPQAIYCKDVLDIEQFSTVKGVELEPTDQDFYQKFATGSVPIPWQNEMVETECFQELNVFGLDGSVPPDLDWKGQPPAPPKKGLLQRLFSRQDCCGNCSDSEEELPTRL

[5] = molecular target: T5, panel of 374 wild-type kinases (Homo sapiens, UniProt Q13188); details: read-out: % Enzyme Activity (relative to DMSO controls), MST2/STK3
T5 construct: purchased Reaction Biology Corporation
T5 sequence (Q13188 1-491): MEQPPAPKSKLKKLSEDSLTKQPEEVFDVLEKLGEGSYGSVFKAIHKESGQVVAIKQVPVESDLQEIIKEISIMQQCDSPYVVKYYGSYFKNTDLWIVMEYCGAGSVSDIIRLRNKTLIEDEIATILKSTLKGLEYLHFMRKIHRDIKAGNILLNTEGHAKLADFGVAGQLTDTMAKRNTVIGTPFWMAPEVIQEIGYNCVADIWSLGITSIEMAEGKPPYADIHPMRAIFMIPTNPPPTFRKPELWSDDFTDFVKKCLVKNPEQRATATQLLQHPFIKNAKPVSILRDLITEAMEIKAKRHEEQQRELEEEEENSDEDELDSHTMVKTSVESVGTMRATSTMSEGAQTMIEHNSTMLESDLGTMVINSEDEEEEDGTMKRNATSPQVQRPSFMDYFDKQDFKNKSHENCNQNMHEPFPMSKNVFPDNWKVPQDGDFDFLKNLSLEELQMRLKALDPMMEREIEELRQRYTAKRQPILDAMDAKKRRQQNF

[6] = molecular target: T6, panel of 374 wild-type kinases (Homo sapiens, UniProt Q15759); details: read-out: % Enzyme Activity (relative to DMSO controls), P38b/MAPK11
T6 construct: purchased Reaction Biology Corporation
T6 sequence (Q15759 whole entry): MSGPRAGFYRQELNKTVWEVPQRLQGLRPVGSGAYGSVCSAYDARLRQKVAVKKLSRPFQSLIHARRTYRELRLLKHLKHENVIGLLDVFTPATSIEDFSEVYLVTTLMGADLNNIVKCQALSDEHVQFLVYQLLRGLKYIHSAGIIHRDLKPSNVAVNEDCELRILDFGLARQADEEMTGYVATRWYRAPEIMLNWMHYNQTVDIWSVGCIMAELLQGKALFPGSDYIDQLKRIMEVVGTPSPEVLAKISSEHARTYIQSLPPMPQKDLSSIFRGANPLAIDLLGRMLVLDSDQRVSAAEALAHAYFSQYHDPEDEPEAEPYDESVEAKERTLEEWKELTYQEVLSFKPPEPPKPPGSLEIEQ

[7] = molecular target: T7, panel of 374 wild-type kinases (Homo sapiens, UniProt Q8TD08); details: read-out: % Enzyme Activity (relative to DMSO controls), ERK7/MAPK15
T7 construct: purchased Reaction Biology Corporation
T7 sequence (Q8TD08 1-544): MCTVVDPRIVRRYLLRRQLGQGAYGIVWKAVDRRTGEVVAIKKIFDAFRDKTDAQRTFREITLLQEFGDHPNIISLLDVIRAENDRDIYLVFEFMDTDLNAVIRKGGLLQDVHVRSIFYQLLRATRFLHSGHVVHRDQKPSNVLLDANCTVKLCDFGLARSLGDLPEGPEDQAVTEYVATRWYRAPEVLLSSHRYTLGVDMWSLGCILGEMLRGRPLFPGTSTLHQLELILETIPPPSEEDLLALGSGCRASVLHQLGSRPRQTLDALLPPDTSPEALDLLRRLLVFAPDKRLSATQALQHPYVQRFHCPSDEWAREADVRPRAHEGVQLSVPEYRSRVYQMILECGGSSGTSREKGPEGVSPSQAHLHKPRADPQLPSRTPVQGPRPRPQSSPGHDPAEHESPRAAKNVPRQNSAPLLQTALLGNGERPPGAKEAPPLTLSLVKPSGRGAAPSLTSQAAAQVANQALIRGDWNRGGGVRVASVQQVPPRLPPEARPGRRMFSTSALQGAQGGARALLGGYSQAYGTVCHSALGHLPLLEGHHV

[8] = molecular target: T8, panel of 374 wild-type kinases (Homo sapiens, UniProt Q9NY57); details: read-out: % Enzyme Activity (relative to DMSO controls), kinase STK32B/YANK2
T8 construct: purchased Reaction Biology Corporation
T8 sequence (Q9NY57 whole entry): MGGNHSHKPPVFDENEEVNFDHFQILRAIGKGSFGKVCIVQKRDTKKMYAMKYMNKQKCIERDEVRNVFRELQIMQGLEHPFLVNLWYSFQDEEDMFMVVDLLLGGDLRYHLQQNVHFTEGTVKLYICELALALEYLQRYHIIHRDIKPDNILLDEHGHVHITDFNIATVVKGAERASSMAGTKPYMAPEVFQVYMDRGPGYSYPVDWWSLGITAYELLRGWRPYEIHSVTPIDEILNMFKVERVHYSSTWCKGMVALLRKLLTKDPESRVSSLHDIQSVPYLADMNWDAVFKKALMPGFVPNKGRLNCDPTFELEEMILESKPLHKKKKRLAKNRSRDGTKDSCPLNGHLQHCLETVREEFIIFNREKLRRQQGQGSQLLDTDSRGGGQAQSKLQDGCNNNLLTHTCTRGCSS

SMILES	remaining activity at 5 µM [1]	remaining activity at 5 µM [2]	remaining activity at 5 µM [3]	remaining activity at 5 µM [4]	remaining activity at 5 µM [5]	remaining activity at 5 µM [6]	remaining activity at 5 µM [7]	remaining activity at 5 µM [8]	remaining activity at 10 µM ([1]; 10 uM)	remaining activity at 10 µM ([2]; 10 uM)	remaining activity at 10 µM ([3]; 10 uM)	remaining activity at 10 µM ([4]; 10 uM)	remaining activity at 10 µM ([5]; 10 uM)	remaining activity at 10 µM ([6]; 10 uM)	remaining activity at 10 µM ([7]; 10 uM)	remaining activity at 10 µM ([8]; 10 uM)
O=C(Nc1cnn(-c2csc(C(=O)NC3COC3)c2)c1)Nc1c(F)cccc1Cl [Compound 25, 4-(4-(3-(2-chloro-6-fluorophenyl)ureido)-1H-pyrazol-1-yl)-N-(oxetan-3-yl)thiophene-2-carboxamide]	93.9%	87.8%	120%	102%	93.2%	91.7%	108%	103%								
O=C(Nc1cnn(-c2csc(C(=O)NC3COC3)c2)c1)Nc1ccccc1Cl [Compound 17, 4-(4-(3-(2-chlorophenyl)ureido)-1H-pyrazol-1-yl)-N-(oxetan-3-yl)thiophene-2-carboxamide]	134%	100%	107%	97.9%	120%	101%	140%	122%								
Cc1sc(C(=O)NC2COC2)cc1-n1cc(NC(=O)Nc2c(F)cccc2Cl)cn1 [Compound 27, 4-(4-(3-(2-chloro-6-fluorophenyl)ureido)-1H-pyrazol-1-yl)-5-methyl-N-(oxetan-3-yl)thiophene-2-carboxamide]									77.3%	81%	78.7%	91.5%	93.9%	94.3%	103%	89.8%

Source: US20240246942A1, “KINASE INHIBITORS FOR THE TREATMENT OF NEURODEGENERATIVE DISEASES” (priority 2020, published 2024)
